Assay results reported in patent US9757391B2 (priority 2012, dated 2017).
“Also recorded” adds a separate entry of the source.

Legend:
morphine tolerance [1] = details: in vivo; cited from earlier work
morphine tolerance [2] = details: rats, cited from earlier work
mouse [3] = assay: General pharmacological screen: depression of behaviour; format: in vivo; details: 300 mg/kg po
Description: (§1) A general pharmacological screen was performed on the neuroactive steroid alphadolone.

mouse [4] = assay: General pharmacological screen: maximum tolerated dose, autonomic signs; format: in vivo; details: 300 mg/kg po
Description: as §1

histotoxic hypoxia = format: in vivo; details: mouse, 100 mg/kg po; ≧50% indicates significant cerebral protection
morphine tolerant rats = details: cited from earlier work

CC(=O)[C@H]1CC[C@H]2[C@@H]3CC=C4C[C@@H](O)CC[C@]4(C)[C@H]3CC[C@]12C [pregnenolone]
prevention of morphine tolerance (morphine tolerance [1]): do prevent morphine tolerance

C[C@]12CC[C@H](O)CC1=CC[C@@H]1[C@@H]2CC[C@]2(C)C(=O)CC[C@@H]12 [dehydrepiandrsterone]
prevention of morphine tolerance (morphine tolerance [1]): do prevent morphine tolerance

CN1CC[C@]23c4c5ccc(O)c4O[C@H]2[C@@H](O)C=C[C@H]3[C@H]1C5 [M-IR, morphine]
tail flick latency response to M-IR, after M-SR treatment (morphine tolerance [2]; M-IR 6.25 mg/kg ip, after M-SR 125 mg/kg/day sc with vehicle emulsion, mean±SEM, P<0.001): 20.3±4.8 % MPE | tail flick latency response to M-IR, pre treatment (morphine tolerance [2]; M-IR 6.25 mg/kg ip, before M-SR treatment, mean±SEM): 89.6±2.5 % MPE

CC(=O)[C@H]1CC[C@H]2[C@@H]3CC[C@H]4C[C@H](O)CC[C@]4(C)[C@H]3CC[C@]12C [allopregnanolone]
prevention of morphine tolerance (morphine tolerance [1]): do prevent morphine tolerance

C[C@]12CC[C@@H](O)C[C@@H]1CC[C@H]1[C@@H]3CC[C@H](C(=O)CO)[C@@]3(C)CC(=O)[C@@H]12 [alphadolone]
depression of behaviour (mouse [3]): no sedation | maximum tolerated dose autonomic signs: body temperature (mouse [4]): temperature elevation | occurrence of morphine tolerance (TFL) (morphine tolerance [2]; alphadolone emulsion 250 mg/kg sc co-administered with M-SR): prevented the occurrence of morphine tolerance; also recorded: no significant tolerance occurred | sedation (morphine tolerance [2]; alphadolone emulsion 250 mg/kg sc with M-SR): did not cause sedation; also recorded: caused no sedation | hypoxia KCN test result (histotoxic hypoxia): result = 50; %

etanercept
microglia activation and proinflammatory cytokine production (morphine tolerant rats): inhibited | morphine tolerance (morphine tolerant rats): reversed the morphine tolerance
